# Data: patent publication US20260297134A1, “CYCLIC PEPTIDES AS PET IMAGING AGENTS OF GRANZYME B” (Merck Sharp & Dohme LLC, priority 2023, published 2026)
# Bridge positions count the residues as written; N and C are the ends. Square brackets hold non-standard residues; d marks the D form. Peptide text beside a SMILES is read from it. NMeF = CN[C@@H](Cc1ccccc1)C(=O)O; NMeA = CN[C@@H](C)C(=O)O
# Target: human Granzyme B (hGranzyme B) (Homo sapiens, UniProt P10144)
# Test: Surface Plasmon Resonance (SPR) binding to human Granzyme B
# Conditions: Table 8, 25° C.
# Protocol: All reagents and solvents were purchased from commercial sources and used “as is” unless otherwise noted. Reaction progress and synthetic intermediate analysis were assessed by LCMS (UV detection with ESI, APCI, or other mass detection) when applicable using a MeCN/water gradient with either TFA, formic acid, or NH4HCO3 modifier. Silica gel and reverse-phase flash column chromatography were conducted with commercially available pre-packed columns. Reverse-phase preparative HPLC purification was performed on preparative HPLC instruments with UV and MS detection using a MeCN/water gradient with either TFA, formic acid, or NH4OH modifier. Unless otherwise noted, all KD data presented in tables refers to the surface plasmon resonance assay that is described in the Biological Assay section.
# The kinetics of test peptide binding to human Granzyme B (hGranzyme B) was determined by SPR. All experiments were performed at 25° C. using the Biacore 8k+ instrument (Cytiva, Marlborough, MA). The Biacore 8k+ Insight Evaluation Software Version 3.0 was used to fit the data with a 1:1 binding model to determine the association rate constant ka (M^−1s^−1, where “M” equals molar and “s” equals seconds) and the dissociation rate constant kd (s^−1). These rate constants were used to calculate the equilibrium dissociation constant, KD (M)=kd/ka. To measure the binding kinetics of peptides of interest, surfaces were prepared by a capture method to a Series S Streptavidin (SA) chip using a 1×HBS-EP+ running buffer (Cytiva). hGranzyme B was diluted to 10 μg/mL in 1×HBS-EP+ and flowed over spot 2 of each flow cell on the chip at a flow rate of 10 μl/min for 20 s to achieve a level of capture of ~1100 RU. An unmodified spot 1 of each flow cell was used as a matrix binding control or reference surface. Binding kinetics were measured using single cycle kinetics at 25° C. by injecting 5 concentrations with 3-fold serial dilutions of test peptides from […] to 1 μM. Compound dilutions were performed manually in a running buffer containing 1×HBS-EP+(Cytiva), and a final concentration of 2% DMSO. The interaction analyses over hGranzyme B, were performed using a 120 s association time and a 900 s dissociation time. All experiments were conducted at a flow rate of […] with a data collection rate of 10 Hz.
# Peptide dilution series included 2 zero concentration points (no compound) which were averaged and subtracted from the peptide concentration injection as DMSO control responses. Binding data acquired from the reference surface (matrix binding control) were subtracted from the binding data for hGranzyme B surface on the chip to determine specific binding. Next, the association phase data were solvent corrected to account for any signal fluctuation throughout the experiment due to subtle DMSO concentration differences. Corrected response data were analyzed using the Biacore 8k+ Evaluation Software Version 3.0 according to the manufacturer. SPR data for representative compounds of the disclosure are found in Table 8.
# Chain of human Granzyme B (hGranzyme B) (P10144 21-247): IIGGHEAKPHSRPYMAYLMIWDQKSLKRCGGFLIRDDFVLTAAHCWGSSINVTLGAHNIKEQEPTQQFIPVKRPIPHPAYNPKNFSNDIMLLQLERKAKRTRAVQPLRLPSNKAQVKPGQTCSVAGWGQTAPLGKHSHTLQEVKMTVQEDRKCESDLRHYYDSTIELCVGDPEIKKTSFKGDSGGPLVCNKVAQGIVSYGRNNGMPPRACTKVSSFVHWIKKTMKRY
row,Structure (SMILES),Kd
1,"CC(C)[C@@H]1NC(=O)[C@H](CC(=O)O)NC(=O)[C@H](Cc2ccc(O)cc2)NC(=O)[C@H](Cc2ccc(O)cc2)NC(=O)[C@H](Cc2ccccc2)N(C)C(=O)[C@H](Cc2ccccc2)N(C)C(=O)[C@H](C)NC(=O)CSC[C@@H](C(=O)NCC(N)=O)NC(=O)[C@H](Cc2c[nH]cn2)NC(=O)[C@H](Cc2ccccc2)N(C)C(=O)[C@H](Cc2ccc(O)cc2)NC(=O)[C@H](C(C)C)NC(=O)[C@H](CC(=O)O)NC(=O)[C@H](C(C)C)NC(=O)[C@H](CC(=O)O)NC1=O [Compound 19a, *A.NMeF.NMeF.Y.Y.D.V.D.V.D.V.Y.NMeF.H.*C.G-NH2] ({CH2CO}-A[NMeF][NMeF]YYDVDVDVY[NMeF]HCG-NH2; thioether N-15)",165 nM
2,"CC(C)[C@@H]1NC(=O)[C@H](CC(=O)O)NC(=O)[C@H](C(C)C)NC(=O)[C@H](CC(=O)O)NC(=O)[C@H](C(C)C)NC(=O)[C@H](CC(=O)O)NC(=O)[C@H](Cc2ccc(O)cc2)NC(=O)[C@H](Cc2ccc(O)cc2)NC(=O)[C@H](Cc2ccccc2)N(C)C(=O)[C@H](Cc2ccccc2)N(C)C(=O)[C@H](Cc2ccccc2)NC(=O)CSC[C@@H](C(=O)NCC(N)=O)NC(=O)[C@H](Cc2c[nH]cn2)NC(=O)[C@H](Cc2ccccc2)N(C)C(=O)[C@H](C)NC1=O [Compound 21a, *F.NMeF.NMeF.Y.Y.D.V.D.V.D.V.A.NMeF.H.*C.G-NH2] ({CH2CO}-F[NMeF][NMeF]YYDVDVDVA[NMeF]HCG-NH2; thioether N-15)",453 nM
3,"CC(C)[C@@H]1NC(=O)[C@H](CC(=O)O)NC(=O)[C@H](C)NC(=O)[C@H](CC(=O)O)NC(=O)[C@H](Cc2ccc(O)cc2)NC(=O)[C@H](Cc2ccc(O)cc2)NC(=O)[C@H](Cc2ccccc2)N(C)C(=O)[C@H](Cc2ccccc2)N(C)C(=O)[C@H](Cc2ccccc2)NC(=O)CSC[C@@H](C(=O)NCC(N)=O)NC(=O)[C@H](Cc2c[nH]cn2)NC(=O)[C@H](Cc2ccccc2)N(C)C(=O)[C@H](Cc2ccc(O)cc2)NC(=O)[C@H](C(C)C)NC(=O)[C@H](CC(=O)O)NC1=O [Compound 20a, *F.NMeF.NMeF.Y.Y.D.A.D.V.D.V.Y.NMeF.H.*C.G-NH2] ({CH2CO}-F[NMeF][NMeF]YYDADVDVY[NMeF]HCG-NH2; thioether N-15)",288 nM
4,"CC(C)[C@@H]1NC(=O)[C@H](CC(=O)O)NC(=O)[C@H](Cc2ccc(O)cc2)NC(=O)[C@H](Cc2ccc(O)cc2)NC(=O)[C@H](C)NC(=O)[C@H](Cc2ccccc2)N(C)C(=O)[C@H](Cc2ccccc2)NC(=O)CSC[C@@H](C(=O)NCC(=O)NCC(=O)N[C@@H](CCCCN)C(N)=O)NC(=O)[C@H](Cc2c[nH]cn2)NC(=O)[C@H](Cc2ccccc2)N(C)C(=O)[C@H](Cc2ccc(O)cc2)NC(=O)[C@H](C(C)C)NC(=O)[C@H](CC(=O)O)NC(=O)[C@H](C(C)C)NC(=O)[C@H](CC(=O)O)NC1=O [Compound 9a, *F.NMeF.A.Y.Y.D.V.D.V.D.V.Y.NMeF.H.*C.G.G.K-NH2] ({CH2CO}-F[NMeF]AYYDVDVDVY[NMeF]HCGGK-NH2; thioether N-15)",188 nM
5,"CC(C)[C@@H]1NC(=O)[C@H](C)NC(=O)[C@H](C(C)C)NC(=O)[C@H](CC(=O)O)NC(=O)[C@H](Cc2ccc(O)cc2)NC(=O)[C@H](Cc2ccc(O)cc2)NC(=O)[C@H](Cc2ccccc2)N(C)C(=O)[C@H](Cc2ccccc2)N(C)C(=O)[C@H](Cc2ccccc2)NC(=O)CSC[C@@H](C(=O)NCC(N)=O)NC(=O)[C@H](Cc2c[nH]cn2)NC(=O)[C@H](Cc2ccccc2)N(C)C(=O)[C@H](Cc2ccc(O)cc2)NC(=O)[C@H](C(C)C)NC(=O)[C@H](CC(=O)O)NC1=O [Compound 22a, *F.NMeF.NMeF.Y.Y.D.V.A.V.D.V.Y.NMeF.H.*C.G-NH2] ({CH2CO}-F[NMeF][NMeF]YYDVAVDVY[NMeF]HCG-NH2; thioether N-15)",548 nM

# These reach a lower Kd. Values come first.
row,Kd,Structure (SMILES)
1,5.4 nM,"CC(C)[C@@H]1NC(=O)[C@H](CC(=O)O)NC(=O)[C@H](Cc2ccc(O)cc2)NC(=O)[C@H](Cc2ccc(O)cc2)NC(=O)[C@H](C)N(C)C(=O)[C@H](Cc2ccccc2)N(C)C(=O)[C@H](Cc2ccccc2)NC(=O)CSC[C@@H](C(=O)NCC(N)=O)NC(=O)[C@H](Cc2c[nH]cn2)NC(=O)[C@H](Cc2ccccc2)N(C)C(=O)[C@H](Cc2ccc(O)cc2)NC(=O)[C@H](C(C)C)NC(=O)[C@H](CC(=O)O)NC(=O)[C@H](C(C)C)NC(=O)[C@H](CC(=O)O)NC1=O [Compound 24a, *F.NMeF.NMeA.Y.Y.D.V.D.V.D.V.Y.NMeF.H.*C.G-NH2] ({CH2CO}-F[NMeF][NMeA]YYDVDVDVY[NMeF]HCG-NH2; thioether N-15)"
2,4.7 nM,"CC(C)[C@@H]1NC(=O)[C@H](CC(=O)O)NC(=O)[C@H](Cc2ccc(O)cc2)NC(=O)[C@H](Cc2ccc(O)cc2)NC(=O)[C@H](Cc2ccccc2)N(C)C(=O)[C@H](Cc2ccccc2)N(C)C(=O)[C@H](Cc2ccccc2)NC(=O)CSC[C@@H](C(=O)NCC(N)=O)NC(=O)[C@H](Cc2c[nH]cn2)NC(=O)[C@H](Cc2ccccc2)N(C)C(=O)[C@H](Cc2ccc(O)cc2)NC(=O)[C@H](C(C)C)NC(=O)[C@H](CC(=O)O)NC(=O)[C@H](C)NC(=O)[C@H](CC(=O)O)NC1=O [Compound 16a, *F.NMeF.NMeF.Y.Y.D.V.D.A.D.V.Y.NMeF.H.*C.G-NH2] ({CH2CO}-F[NMeF][NMeF]YYDVDADVY[NMeF]HCG-NH2; thioether N-15)"
3,2.1 nM,"CC(C)[C@@H]1NC(=O)[C@H](CC(=O)O)NC(=O)[C@H](C)NC(=O)[C@H](Cc2ccc(O)cc2)NC(=O)[C@H](Cc2ccccc2)N(C)C(=O)[C@H](Cc2ccccc2)N(C)C(=O)[C@H](Cc2ccccc2)NC(=O)CSC[C@@H](C(=O)NCC(=O)N[C@@H](CCCCN)C(=O)N[C@@H](CCCCN)C(N)=O)NC(=O)[C@H](Cc2c[nH]cn2)NC(=O)[C@H](Cc2ccccc2)N(C)C(=O)[C@H](Cc2ccc(O)cc2)NC(=O)[C@H](C(C)C)NC(=O)[C@H](CC(=O)O)NC(=O)[C@H](C(C)C)NC(=O)[C@H](CC(=O)O)NC1=O [Compound 11a, *F.NMeF.NMeF.Y.A.D.V.D.V.D.V.Y.NMeF.H.*C.G.K.K-NH2] ({CH2CO}-F[NMeF][NMeF]YADVDVDVY[NMeF]HCGKK-NH2; thioether N-15)"
4,1 nM,"CC(C)[C@@H]1NC(=O)[C@H](CC(=O)O)NC(=O)[C@H](C)NC(=O)[C@H](Cc2ccc(O)cc2)NC(=O)[C@H](Cc2ccccc2)N(C)C(=O)[C@H](Cc2ccccc2)N(C)C(=O)[C@H](Cc2ccccc2)NC(=O)CSC[C@@H](C(=O)NCC(=O)N[C@@H](CCCCN)C(N)=O)NC(=O)[C@H](Cc2c[nH]cn2)NC(=O)[C@H](Cc2ccccc2)N(C)C(=O)[C@H](Cc2ccc(O)cc2)NC(=O)[C@H](C(C)C)NC(=O)[C@H](CC(=O)O)NC(=O)[C@H](C(C)C)NC(=O)[C@H](CC(=O)O)NC1=O [Compound 10a, *F.NMeF.NMeF.Y.A.D.V.D.V.D.V.Y.NMeF.H.*C.G.K-NH2] ({CH2CO}-F[NMeF][NMeF]YADVDVDVY[NMeF]HCGK-NH2; thioether N-15)"
5,0.8 nM,"CC(C)[C@@H]1NC(=O)[C@H](CC(=O)O)NC(=O)[C@H](Cc2ccc(O)cc2)NC(=O)[C@H](Cc2ccc(O)cc2)NC(=O)[C@H](Cc2ccccc2)N(C)C(=O)[C@H](Cc2ccccc2)N(C)C(=O)[C@H](Cc2ccccc2)NC(=O)CSC[C@@H](C(=O)NCC(N)=O)NC(=O)[C@H](C)NC(=O)[C@H](Cc2ccccc2)N(C)C(=O)[C@H](Cc2ccc(O)cc2)NC(=O)[C@H](C(C)C)NC(=O)[C@H](CC(=O)O)NC(=O)[C@H](C(C)C)NC(=O)[C@H](CC(=O)O)NC1=O [Compound 14a, *F.NMeF.NMeF.Y.Y.D.V.D.V.D.V.Y.NMeF.A.*C.G-NH2] ({CH2CO}-F[NMeF][NMeF]YYDVDVDVY[NMeF]ACG-NH2; thioether N-15)"
6,0.1 nM,"CC(C)[C@@H]1NC(=O)[C@H](CC(=O)O)NC(=O)[C@H](Cc2ccc(O)cc2)NC(=O)[C@H](Cc2ccc(O)cc2)NC(=O)[C@H](Cc2ccccc2)N(C)C(=O)[C@H](Cc2ccccc2)N(C)C(=O)[C@H](Cc2ccccc2)NC(=O)CSC[C@@H](C(=O)NCC(=O)N[C@@H](CCCCN)C(=O)N[C@@H](CCCCN)C(N)=O)NC(=O)[C@H](Cc2c[nH]cn2)NC(=O)[C@H](Cc2ccccc2)N(C)C(=O)[C@H](Cc2ccc(O)cc2)NC(=O)[C@H](C(C)C)NC(=O)[C@H](CC(=O)O)NC(=O)[C@H](C(C)C)NC(=O)[C@H](CC(=O)O)NC1=O [Compound 13a, *F.NMeF.NMeF.Y.Y.D.V.D.V.D.V.Y.NMeF.H.*C.G.K.K-NH2] ({CH2CO}-F[NMeF][NMeF]YYDVDVDVY[NMeF]HCGKK-NH2; thioether N-15)"
